Source: the supplement of paper PMC10307832

Tests used:
Experiment in all cases: relative viability (nuclei count vs DMSO), 5 days (fraction); higher = more cells survive
RERF-LC-KJ = tested on: RERF-LC-KJ
Outline: (§1)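 Five library-drug doses in √10 steps were combined with a fixed anchor-drug dose, or a single drug was given alone, by pin tool to lung cancer cell lines in 1536-well plates the day after seeding. Nuclei were stained and counted after 5 days. Relative viability is the nuclei count in treated wells over that in vehicle wells, taken as the median of duplicate plates.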

NCI-H2347 = tested on: NCI-H2347
Outline: as §1

EMC-BAC-2 = tested on: EMC-BAC-2
Outline: as §1

NCI-H838 = tested on: NCI-H838
Outline: as §1

NCI-H596 = tested on: NCI-H596
Outline: as §1

HCC-366 = tested on: HCC-366
Outline: as §1

NCI-H3122 = tested on: NCI-H3122
Outline: as §1

PC-14 = tested on: PC-14
Outline: as §1

NCI-H2405 = tested on: NCI-H2405
Outline: as §1

HCC-78 = tested on: HCC-78
Outline: as §1

CAL-12T = tested on: CAL-12T
Outline: as §1

NCI-H1993 = tested on: NCI-H1993
Outline: as §1

LC-2-ad = tested on: LC-2-ad
Outline: as §1

ChaGo-K-1 = tested on: ChaGo-K-1
Outline: as §1

NCI-H2085 = tested on: NCI-H2085
Outline: as §1

HOP-62 = tested on: HOP-62
Outline: as §1

LK-2 = tested on: LK-2
Outline: as §1

NCI-H1355 = tested on: NCI-H1355
Outline: as §1

NCI-H1734 = tested on: NCI-H1734
Outline: as §1

Compound `O=c1[nH]c2ccccc2n1C1CCN(CCCC(c2ccc(F)cc2)c2ccc(F)cc2)CC1` [Pimozide] + NC(=O)Nc1cc(-c2cccc(F)c2)sc1C(=O)N[C@H]1CCCNC1 [AZD7762] (partner 0.2 µM) has a relative viability (RERF-LC-KJ; first compound 0.08 µM) of 0.91, a relative viability (RERF-LC-KJ; first compound 0.253 µM) of 0.866 and a relative viability (RERF-LC-KJ; first compound 0.8 µM) of 0.806. It also gave a relative viability (RERF-LC-KJ; first compound 2.53 µM) of 0.757, a relative viability (RERF-LC-KJ; first compound 8 µM) of 0.81 and a relative viability (NCI-H2347; first compound 0.08 µM) of 0.782. For the same compound, the relative viability (NCI-H2347; first compound 0.253 µM) was 0.689, the relative viability (NCI-H2347; first compound 0.8 µM) was 0.723 and the relative viability (NCI-H2347; first compound 2.53 µM) was 0.736. It also gave a relative viability (NCI-H2347; first compound 8 µM) of 0.744, a relative viability (EMC-BAC-2; first compound 0.08 µM) of 1.06 and a relative viability (EMC-BAC-2; first compound 0.253 µM) of 1.03. For the same compound, the relative viability (EMC-BAC-2; first compound 0.8 µM) was 1, the relative viability (EMC-BAC-2; first compound 2.53 µM) was 1.09 and the relative viability (EMC-BAC-2; first compound 8 µM) was 1. The relative viability (NCI-H838; first compound 0.08 µM) was 0.937, the relative viability (NCI-H838; first compound 0.253 µM) was 0.946 and the relative viability (NCI-H838; first compound 0.8 µM) was 0.908. The relative viability (NCI-H838; first compound 2.53 µM) was 0.938, the relative viability (NCI-H838; first compound 8 µM) was 0.966 and the relative viability (NCI-H596; first compound 0.08 µM) was 1.17. For the same compound, the relative viability (NCI-H596; first compound 0.253 µM) was 1.31, the relative viability (NCI-H596; first compound 0.8 µM) was 1.31 and the relative viability (NCI-H596; first compound 2.53 µM) was 1.19. For the same compound, the relative viability (NCI-H596; first compound 8 µM) was 1.04, the relative viability (HCC-366; first compound 0.08 µM) was 0.263 and the relative viability (HCC-366; first compound 0.253 µM) was 0.258. The relative viability (HCC-366; first compound 0.8 µM) was 0.211, the relative viability (HCC-366; first compound 2.53 µM) was 0.246 and the relative viability (HCC-366; first compound 8 µM) was 0.253. It also gave a relative viability (NCI-H3122; first compound 0.08 µM) of 0.977, a relative viability (NCI-H3122; first compound 0.253 µM) of 0.882 and a relative viability (NCI-H3122; first compound 0.8 µM) of 0.963. For the same compound, the relative viability (NCI-H3122; first compound 2.53 µM) was 1.05, the relative viability (NCI-H3122; first compound 8 µM) was 0.825 and the relative viability (PC-14; first compound 0.253 µM) was 0.348. It also gave a relative viability (PC-14; first compound 0.8 µM) of 0.271, a relative viability (PC-14; first compound 2.53 µM) of 0.328 and a relative viability (PC-14; first compound 8 µM) of 0.402. It also gave a relative viability (NCI-H2405; first compound 0.08 µM) of 0.741, a relative viability (NCI-H2405; first compound 0.253 µM) of 0.716 and a relative viability (NCI-H2405; first compound 0.8 µM) of 0.673. It also gave a relative viability (NCI-H2405; first compound 2.53 µM) of 0.608, a relative viability (NCI-H2405; first compound 8 µM) of 0.426 and a relative viability (HCC-78; first compound 0.08 µM) of 0.547. For the same compound, the relative viability (HCC-78; first compound 0.8 µM) was 0.607, the relative viability (HCC-78; first compound 2.53 µM) was 0.55 and the relative viability (HCC-78; first compound 8 µM) was 0.6. The relative viability (CAL-12T; first compound 0.08 µM) was 0.64, the relative viability (CAL-12T; first compound 0.253 µM) was 0.587 and the relative viability (CAL-12T; first compound 0.8 µM) was 0.539. It also gave a relative viability (CAL-12T; first compound 2.53 µM) of 0.511, a relative viability (CAL-12T; first compound 8 µM) of 0.587 and a relative viability (NCI-H1993; first compound 0.08 µM) of 0.701. It also gave a relative viability (NCI-H1993; first compound 0.253 µM) of 0.752, a relative viability (NCI-H1993; first compound 0.8 µM) of 0.544 and a relative viability (NCI-H1993; first compound 2.53 µM) of 0.675. It also gave a relative viability (NCI-H1993; first compound 8 µM) of 0.729, a relative viability (LC-2-ad; first compound 0.08 µM) of 0.78 and a relative viability (LC-2-ad; first compound 0.253 µM) of 0.794. For the same compound, the relative viability (LC-2-ad; first compound 0.8 µM) was 0.736, the relative viability (LC-2-ad; first compound 2.53 µM) was 0.812 and the relative viability (LC-2-ad; first compound 8 µM) was 0.798. The relative viability (ChaGo-K-1; first compound 0.08 µM) was 0.914, the relative viability (ChaGo-K-1; first compound 0.253 µM) was 0.871 and the relative viability (ChaGo-K-1; first compound 0.8 µM) was 0.88. The relative viability (ChaGo-K-1; first compound 2.53 µM) was 0.803, the relative viability (ChaGo-K-1; first compound 8 µM) was 0.824 and the relative viability (NCI-H2085; first compound 0.08 µM) was 0.937. The relative viability (NCI-H2085; first compound 0.253 µM) was 0.971, the relative viability (NCI-H2085; first compound 0.8 µM) was 0.922 and the relative viability (NCI-H2085; first compound 2.53 µM) was 1.07. It also gave a relative viability (NCI-H2085; first compound 8 µM) of 0.953, a relative viability (HOP-62; first compound 0.08 µM) of 0.634 and a relative viability (HOP-62; first compound 0.253 µM) of 0.477. For the same compound, the relative viability (HOP-62; first compound 2.53 µM) was 0.661, the relative viability (HOP-62; first compound 8 µM) was 0.517 and the relative viability (LK-2; first compound 0.08 µM) was 0.539. The relative viability (LK-2; first compound 0.253 µM) was 0.438, the relative viability (LK-2; first compound 0.8 µM) was 0.376 and the relative viability (LK-2; first compound 8 µM) was 0.417. It also gave a relative viability (NCI-H1355; first compound 0.08 µM) of 0.757, a relative viability (NCI-H1355; first compound 0.253 µM) of 0.732 and a relative viability (NCI-H1355; first compound 0.8 µM) of 0.701. It also gave a relative viability (NCI-H1355; first compound 2.53 µM) of 0.641, a relative viability (NCI-H1355; first compound 8 µM) of 0.761 and a relative viability (NCI-H1734; first compound 0.08 µM) of 0.573. For the same compound, the relative viability (NCI-H1734; first compound 0.253 µM) was 0.558, the relative viability (NCI-H1734; first compound 0.8 µM) was 0.487 and the relative viability (NCI-H1734; first compound 2.53 µM) was 0.511. It also gave a relative viability (NCI-H1734; first compound 8 µM) of 0.485.
